Eight substances from article PMC11184611, “Development of Nontoxic Peptides for Lipopolysaccharide Neutralization and Sepsis Treatment” (ACS Pharmacology & Translational Science, 2024) can be followed below.

Where two headings read alike, the source gives them in different places. No end group written: not given here.

Series [1] deals with RAW264.7 murine macrophages. The format is cell-based. The procedure:
All in vitro assays were performed on RAW264.7 murine macrophages (ATCC TIB-71). Cells were grown in Dulbecco’s modified eagle medium (DMEM) supplemented with 10% fetal bovine serum (FBS), L-glutamine, sodium pyruvate, nonessential amino acids, and antibiotics (Biological Industries, Beit Haemek, Israel). The incubator was set on 37 °C with a humidified atmosphere containing 5% CO2.
One ×10^4 cells per well were grown overnight on a 96-well plate at 37 °C with a humidified atmosphere containing 5% CO2. The following day, the media were replaced with 90 μL fresh culture medium and 10 μL solution buffer containing different concentrations of the different peptides. Peptides were serially diluted in culture medium to concentration ranging from 100 to 0.78 μM. The cells were then incubated for 2 h before adding to each well 50 μL of […] (XTT) reaction solution (Biological Industries). Cell viability was determined as described previously.[52],[54] The LC50 (the concentration at which 50% of the cells die) for each peptide was obtained from the dose-dependent cell viability curves.

A further series concerns S. aureus (ATCC 6538P). The format is cell-based, Staphylococcus aureus. The procedure:
(§1) The antibacterial activity of the peptides was examined in sterile 96-well plates (Nunc 96-well microtiter plates) in a final volume of 100 μL, as follows. Aliquots (50 μL) of a suspension containing bacteria at a concentration of 10^6 colony-forming units/mL in culture medium (LB medium) were added to 50 μL of peptide serially diluted in culture medium (100–0.78 μM). Inhibition of growth was determined by the eye after an incubation of 18–20 h at 37 °C. Antibacterial activities were expressed as the minimal inhibitory concentration (MIC), the concentration at which 100% inhibition of growth was observed after 18–20 h of incubation. In these experiments, we have tested the effect of the peptides on E. coli (ATCC 25922) and Staphylococcus aureus (ATCC 6538P) as representatives of both Gram-negative and Gram-positive bacteria, respectively.

Another series has as its system E. coli (ATCC 25922). The format is cell-based. How it is done: as §1
In another series the test system is C57BL/6 mice. Kind of series: In vivo toxicity, i.p. injection. Particulars: 100 mg/kg i.p. in 400 μL saline, highest dose tested, female C57BL/6 mice, n = 2, observed 7 days. The procedure: Toxicity was tested by i.p. injection of K2(AL)8K2 (100 mg/kg in 400 μL saline) in female C57BL/6 mice (n = 2). Mice were continuously observed for 1 h immediately following injection and once per day for 7 days. To examine the effect of our peptide on acute septic shock driven by LPS hyper-activation of TLR4, we have used murine models as described before.[55],[56] Briefly, 12 weeks old C57BL/6 female mice were treated with 100 ng of LPS injected i.p. in a saline solution (200 μL, pH 6.5) containing 200 mg/mL of D-galactosamine (Calbiochem). Treated mice received one i.p. injection of 10 mg/kg peptide dissolved in saline (200 μL) followed by an injection of LPS. In the second model, heat-killed bacteria were used to induce a lethal septic shock. E. coli cells were grown to a mid-log phase (optical density = 0.5) at 37 °C, cooled on ice, and centrifuged at 1200g for 10 min at 4 °C. The cells were resuspended in saline for a concentration of 2 × 10^9 cells in 200 μL and heated at 95 °C for 30 min. Each animal received an i.p. injection of 2 × 10^9 cells in 200 μL saline followed by an injection of 10 mg/kg peptide dissolved in saline (200 μL). Animals were monitored for survival and signs of sepsis for the next 14 days after LPS injection. For LPS-driven septic shock, n = 8. For heat-killed bacteria, n = 11. […]

Where [2] appears, read: XTT, cells incubated 2 h with peptide, 100 to 0.78 μM.
The mark [3] stands for this setting: 100% inhibition of growth, by eye, after 18–20 h at 37 °C, LB medium, peptide 100–0.78 μM.

As to KALALALALALALALALALK-NH2 [K(AL)9K], the toxicity to macrophages entry in series [1] is recorded as “no”. The “LC50 macrophages RAW 264.7” value in series [1] (2 h) was over 100 µM. Also, the “MIC S. aureus (ATCC 6538P)” value in the series with S. aureus (ATCC 6538P) is over 100 µM. The “MIC E. coli (ATCC 25922)” value against E. coli (ATCC 25922) (ATCC 25922) is over 100 µM.

With “KALALALKALALKALALALK-NH2 [K(AL)3K(AL)2K(AL)3K]”, in series [1] (RAW264.7), the “cytotoxicity” value is given as “moderate toxicity”. Also, the “LC50 macrophages RAW 264.7” value in series [1] (setting [2]) is 25 µM. Besides, in series [1] (summary table, yes/no), the toxicity to macrophages entry is listed as “yes”. In the series on S. aureus (ATCC 6538P), the “MIC S. aureus (ATCC 6538P)” value was determined as 12.5 µM. For the same substance, in the series on E. coli (ATCC 25922) (ATCC 25922), the “MIC E. coli (ATCC 25922)” value was 25 µM.

On to KKALALALALALAKK-NH2 [K2(AL)5AK2], for which the toxicity to macrophages result in series [1] was “no”. Also, the “LC50 macrophages RAW 264.7” value in series [1] (2 h) is over 100 µM. The “MIC S. aureus (ATCC 6538P)” value in the series on S. aureus (ATCC 6538P) is over 100 µM. For the same substance, the “MIC E. coli (ATCC 25922)” value with E. coli (ATCC 25922) (ATCC 25922) is over 100 µM.

As to ALALALALALALALALALKK-NH2 [(AL)9K2], the toxicity to macrophages entry in series [1] is given as “no”. The “LC50 macrophages RAW 264.7” value in series [1] (2 h) is over 100 µM. Besides, the “MIC S. aureus (ATCC 6538P)” value against S. aureus (ATCC 6538P) was over 100 µM. The “MIC E. coli (ATCC 25922)” value with E. coli (ATCC 25922) (ATCC 25922) is over 100 µM.

Take KKALALALALALALALALKK-NH2 [K2(AL)8K2]: the toxicity to macrophages result in series [1] is on record as “no”. In series [1] (2 h), the “LC50 macrophages RAW 264.7” value is over 100 µM. Also, the “MIC S. aureus (ATCC 6538P)” value in the series on S. aureus (ATCC 6538P) is over 100 µM. For the same substance, the “toxicity in vivo” value in the series with C57BL/6 mice is given as “no lasting adverse effects were observed”. Further, in the series on E. coli (ATCC 25922) (ATCC 25922), the “MIC E. coli (ATCC 25922)” value is over 100 µM.

Regarding KKALALALKK-NH2 [K2(AL)3K2], the toxicity to macrophages result in series [1] is recorded as “no”. The “LC50 macrophages RAW 264.7” value in series [1] (2 h) is over 100 µM. Also, in the series on S. aureus (ATCC 6538P), the “MIC S. aureus (ATCC 6538P)” value is over 100 µM. For the same substance, the “MIC E. coli (ATCC 25922)” value against E. coli (ATCC 25922) (ATCC 25922) was over 100 µM.

Turning to LALALALALALALALALALK-NH2 [L(AL)9K], the “LC50 macrophages RAW 264.7” value in series [1] (setting [2]) is over 100 µM. Besides, the toxicity to macrophages entry in series [1] (summary table, yes/no) was “no”. The “MIC S. aureus (ATCC 6538P)” value in the series with S. aureus (ATCC 6538P) (setting [3]) was over 100 µM. In the series on E. coli (ATCC 25922) (setting [3]), the “MIC E. coli (ATCC 25922)” value is over 100 µM.

As to KKAVAVAVAVAVAVAVAVKK-NH2 [K2(AV)8K2], the “LC50 macrophages RAW 264.7” value in series [1] (2 h) amounted to 90 µM. Besides, the “MIC S. aureus (ATCC 6538P)” value against S. aureus (ATCC 6538P) was over 100 µM. For the same substance, the “MIC E. coli (ATCC 25922)” value against E. coli (ATCC 25922) (ATCC 25922) was over 100 µM.
